The results in this text go back to US20240383869A1, “ARYLACETYL INHIBITORS OF TG2 AND USES THEREOF” (UNIVERSITY OF OTTAWA, priority 2021, published 2024).

One assay has as its target T1, FXIIIa (Homo sapiens, UniProt P00488).
T1 construct: purchased Zedira
T1 sequence (P00488 39-732 limits assumed): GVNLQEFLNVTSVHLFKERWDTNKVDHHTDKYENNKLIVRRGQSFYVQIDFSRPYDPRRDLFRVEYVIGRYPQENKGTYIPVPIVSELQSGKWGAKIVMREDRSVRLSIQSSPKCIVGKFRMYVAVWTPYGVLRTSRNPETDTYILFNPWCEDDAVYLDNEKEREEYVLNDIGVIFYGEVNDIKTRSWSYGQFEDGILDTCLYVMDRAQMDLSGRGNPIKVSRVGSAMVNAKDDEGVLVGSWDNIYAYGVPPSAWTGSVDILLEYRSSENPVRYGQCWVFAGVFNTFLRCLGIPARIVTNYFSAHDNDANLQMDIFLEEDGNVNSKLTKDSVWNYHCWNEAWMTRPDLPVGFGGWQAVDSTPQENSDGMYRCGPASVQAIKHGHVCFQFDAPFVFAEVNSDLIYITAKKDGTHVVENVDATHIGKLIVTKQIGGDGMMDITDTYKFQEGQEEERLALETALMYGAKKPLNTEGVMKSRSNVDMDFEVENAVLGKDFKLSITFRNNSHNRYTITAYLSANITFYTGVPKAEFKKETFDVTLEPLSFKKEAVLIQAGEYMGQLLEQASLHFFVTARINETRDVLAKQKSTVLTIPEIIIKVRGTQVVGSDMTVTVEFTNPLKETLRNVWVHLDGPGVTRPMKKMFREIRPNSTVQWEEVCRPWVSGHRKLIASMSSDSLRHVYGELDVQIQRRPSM
As to the kind of experiment: Fluorescence isopeptidase activity assay (A101 FRET-quenched probe), isozyme selectivity. The conditions noted are these: normalized [I]/α. It counts as biochemical. As for the experimental part: (§1) Fluorescence isopeptidase activity assay. The isopeptidase activity of pre-activated TG3a and FXIIIa (purchased from Zedira) was measured via a fluorescence-based assay as described (Kirily, R. et al., “Isopeptidase activity of human transglutaminase 2: disconnection from transamidation and characterization by kinetic parameters.” Amino Acids 2016, 48 (1), 31-40) using the commercially available peptidic FRET quenched probe A101. Briefly, the final concentration in the reaction mixture contained 50 mM Tris (pH 7.0), 10 mM CaCl2, 100 mM NaCl, 2.8 mM TCEP, 50 μM A101 and 14 mM H-Gly-OMe. The reaction was monitored at 25° C. using a BioTek Synergy 4 plate reader (Ex/Em: 318/413 nm). Enzymatic inhibition assays were run under Kitz and Wilson conditions (Kitz, R. and Wilson, I. B., “Esters of methanesulfonic acid as irreversible inhibitors of acetylcholinesterase.” J. Biol. Chem. 1962, 237, 3245-49), which were established for TG3a and FXIIIa at a substrate (A101) concentration of 50 μM using enzyme concentrations of 0.17 μM and 0.11 μM for TG3a and FXIIIa, respectively.

The next assay deals with T2, TG3a (Homo sapiens, UniProt Q08188).
T2 construct: purchased Zedira
T2 sequence (Q08188 2-467 limits assumed): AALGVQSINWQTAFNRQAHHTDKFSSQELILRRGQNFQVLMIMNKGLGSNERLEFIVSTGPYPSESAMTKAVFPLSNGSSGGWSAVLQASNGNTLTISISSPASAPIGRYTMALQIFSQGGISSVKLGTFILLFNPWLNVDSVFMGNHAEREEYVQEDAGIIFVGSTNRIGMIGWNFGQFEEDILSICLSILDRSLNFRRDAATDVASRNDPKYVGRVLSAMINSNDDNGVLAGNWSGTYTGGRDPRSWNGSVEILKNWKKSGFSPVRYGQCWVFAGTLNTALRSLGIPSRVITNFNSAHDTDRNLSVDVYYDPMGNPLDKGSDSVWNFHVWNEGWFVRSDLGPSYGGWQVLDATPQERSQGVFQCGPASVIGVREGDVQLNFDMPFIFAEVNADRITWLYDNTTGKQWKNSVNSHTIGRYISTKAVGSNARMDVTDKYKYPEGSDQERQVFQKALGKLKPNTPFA
T2 sequence (Q08188 468-693 partner limits assumed): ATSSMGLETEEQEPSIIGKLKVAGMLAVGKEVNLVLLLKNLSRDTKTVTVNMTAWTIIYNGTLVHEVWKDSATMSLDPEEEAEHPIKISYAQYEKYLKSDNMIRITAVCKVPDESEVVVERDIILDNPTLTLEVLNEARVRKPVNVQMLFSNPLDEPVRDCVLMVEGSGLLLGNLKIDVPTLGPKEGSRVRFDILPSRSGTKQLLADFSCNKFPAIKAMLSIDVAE
The description is as above. It counts as biochemical. The conditions noted are these: normalized [I]/α. On the procedure: as §1

Each structure is given as a SMILES string.

`C=CC(=O)NCCCC[C@H](NC(=O)Cc1ccccc1F)C(=O)N1CCN(C(=O)c2cccc3ccccc23)CC1` [Inhibitor 72, (S)-N-(6-(4-(1-naphthoyl)piperazin-1-yl)-5-(2-(2-fluorophenyl)acetamido)-6-oxohexyl)acrylamide]: the “inhibition of FXIIIa” value at FXIIIa is recorded as “none of these inhibitors showed any detectable inhibition”. Also, the “inhibition of TG3a” value at TG3a was “none of these inhibitors showed any detectable inhibition”.
Consider `C=CC(=O)NCCCC[C@H](NC(=O)OCc1ccccc1)C(=O)N1CCN(C(=O)c2cccc3ccccc23)CC1` [AA9, reference compound], for which, at FXIIIa, the “inhibition of FXIIIa” value is listed as “none of these inhibitors showed any detectable inhibition”. Further, the “inhibition of TG3a” value at TG3a was “none of these inhibitors showed any detectable inhibition”.
`C=CC(=O)NCCCC[C@H](NC(=O)Cc1ccccc1C)C(=O)N1CCN(C(=O)c2cccc3ccccc23)CC1` [Inhibitor 74, (S)-N-(6-(4-(1-naphthoyl)piperazin-1-yl)-5-(2-(2-methylphenyl)acetamido)-6-oxohexyl)acrylamide]: the “inhibition of FXIIIa” value at FXIIIa is “none of these inhibitors showed any detectable inhibition”. In addition, the “inhibition of TG3a” value on TG3a is recorded as “none of these inhibitors showed any detectable inhibition”.
